Test results from ChEMBL document CHEMBL1140781, “4-Aminopyridine derivatives with anticholinesterase and antiamnesic activity” (Bioorg Med Chem Lett, 2008).

Experiments:
Rattus norvegicus [1] = assay: Antiamnesic activity in scopolamine-induced memory deficit rat assessed as retention trial latency time at 100 mg/kg, ip after 24 hrs; format: functional; conditions: route intraperitoneal
Rattus norvegicus [2] = assay: Antiamnesic activity in scopolamine-induced memory deficit rat assessed as retention trial latency time at 0.02 mg/kg, ip after 24 hrs; format: functional; conditions: route intraperitoneal
Rattus norvegicus [3] = assay: Antiamnesic activity in scopolamine-induced memory deficit rat assessed as retention trial latency time at 1.0 mg/kg, ip after 24 hrs; format: functional; conditions: route intraperitoneal
Rattus norvegicus [4] = assay: Antiamnesic activity in scopolamine-induced memory deficit rat assessed as training trial latency time at 1.0 mg/kg, ip; format: functional; conditions: route intraperitoneal
Rattus norvegicus [5] = assay: Antiamnesic activity in scopolamine-induced memory deficit rat assessed as training trial latency time at 0.02 mg/kg, ip; format: functional; conditions: route intraperitoneal
Cholinesterase = Cholinesterase (Homo sapiens, UniProt P06276); assay: Inhibition of butyrylcholinesterase
Cholinesterase, sequence (P06276 whole entry): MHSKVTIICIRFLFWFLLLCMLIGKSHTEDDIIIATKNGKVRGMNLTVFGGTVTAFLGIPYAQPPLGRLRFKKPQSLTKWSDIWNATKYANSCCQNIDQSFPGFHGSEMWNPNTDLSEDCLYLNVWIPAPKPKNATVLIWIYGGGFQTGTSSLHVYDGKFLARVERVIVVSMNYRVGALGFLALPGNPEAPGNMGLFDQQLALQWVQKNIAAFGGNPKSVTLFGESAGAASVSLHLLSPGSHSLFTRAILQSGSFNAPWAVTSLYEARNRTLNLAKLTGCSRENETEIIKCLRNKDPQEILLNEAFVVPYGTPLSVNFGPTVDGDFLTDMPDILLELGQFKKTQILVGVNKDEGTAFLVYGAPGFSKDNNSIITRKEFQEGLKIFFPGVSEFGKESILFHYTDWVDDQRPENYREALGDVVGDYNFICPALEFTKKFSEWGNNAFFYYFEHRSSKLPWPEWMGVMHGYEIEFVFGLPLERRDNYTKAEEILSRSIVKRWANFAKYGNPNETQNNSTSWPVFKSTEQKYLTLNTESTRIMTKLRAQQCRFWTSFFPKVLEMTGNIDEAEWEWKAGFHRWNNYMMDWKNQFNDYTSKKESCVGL

Acetylcholinesterase = Acetylcholinesterase (Homo sapiens, UniProt P22303); assay: Inhibition of acetylcholinesterase
Acetylcholinesterase, sequence (P22303 whole entry): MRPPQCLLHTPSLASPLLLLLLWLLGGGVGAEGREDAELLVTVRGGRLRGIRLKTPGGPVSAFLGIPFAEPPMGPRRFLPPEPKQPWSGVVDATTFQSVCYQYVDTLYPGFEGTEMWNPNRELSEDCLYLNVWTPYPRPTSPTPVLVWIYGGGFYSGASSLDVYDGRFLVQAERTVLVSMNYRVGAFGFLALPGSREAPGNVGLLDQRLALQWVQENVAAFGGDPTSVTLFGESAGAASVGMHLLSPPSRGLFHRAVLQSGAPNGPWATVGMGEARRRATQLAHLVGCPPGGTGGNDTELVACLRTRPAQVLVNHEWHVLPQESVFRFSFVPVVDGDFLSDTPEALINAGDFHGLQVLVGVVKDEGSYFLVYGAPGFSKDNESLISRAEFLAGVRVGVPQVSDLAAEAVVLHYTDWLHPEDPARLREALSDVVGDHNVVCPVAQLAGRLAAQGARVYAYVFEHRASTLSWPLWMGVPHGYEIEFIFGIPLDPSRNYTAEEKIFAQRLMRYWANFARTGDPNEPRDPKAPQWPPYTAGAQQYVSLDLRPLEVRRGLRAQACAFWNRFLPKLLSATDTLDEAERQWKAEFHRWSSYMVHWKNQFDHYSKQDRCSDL

Rattus norvegicus [6] = assay: Antiamnesic activity in scopolamine-induced memory deficit rat assessed as training trial latency time at 100 mg/kg, ip; format: functional; conditions: route intraperitoneal
Rattus norvegicus [7] = assay: Antiamnesic activity in scopolamine-induced memory deficit rat assessed as retention trial latency time at 0.24 mg/kg, ip after 24 hrs; format: functional; conditions: route intraperitoneal
Rattus norvegicus [8] = assay: Antiamnesic activity in scopolamine-induced memory deficit rat assessed as retention trial latency time at 0.024 mg/kg, ip after 24 hrs; format: functional; conditions: route intraperitoneal
Rattus norvegicus [9] = assay: Antiamnesic activity in scopolamine-induced memory deficit rat assessed as retention trial latency time at 1.2 mg/kg, ip after 24 hrs; format: functional; conditions: route intraperitoneal
Rattus norvegicus [10] = assay: Antiamnesic activity in scopolamine-induced memory deficit rat assessed as training trial latency time at 1.2 mg/kg, ip; format: functional; conditions: route intraperitoneal
Rattus norvegicus [11] = assay: Antiamnesic activity in scopolamine-induced memory deficit rat assessed as training trial time at 0.024 mg/kg, ip; format: functional; conditions: route intraperitoneal
Rattus norvegicus [12] = assay: Antiamnesic activity in scopolamine-induced memory deficit rat assessed as retention trial latency time at 2.4 mg/kg, ip after 24 hrs; format: functional; conditions: route intraperitoneal
Rattus norvegicus [13] = assay: Antiamnesic activity in scopolamine-induced memory deficit rat assessed as training trial latency time at 2.4 mg/kg, ip; format: functional; conditions: route intraperitoneal
Rattus norvegicus [14] = assay: Antiamnesic activity in scopolamine-induced memory deficit rat assessed as training trial latency time at 0.24 mg/kg, ip; format: functional; conditions: route intraperitoneal
Rattus norvegicus [15] = assay: Antiamnesic activity in scopolamine-induced memory deficit rat assessed as retention trial latency time at 34.73 mg/kg, ip after 24 hrs; format: functional; conditions: route intraperitoneal
Rattus norvegicus [16] = assay: Antiamnesic activity in scopolamine-induced memory deficit rat assessed as retention trial latency time at 17.37 mg/kg, ip after 24 hrs; format: functional; conditions: route intraperitoneal
Rattus norvegicus [17] = assay: Antiamnesic activity in scopolamine-induced memory deficit rat assessed as training trial latency time at 17.37 mg/kg, ip; format: functional; conditions: route intraperitoneal
Rattus norvegicus [18] = assay: Antiamnesic activity in scopolamine-induced memory deficit rat assessed as training trial latency time at 34.73 mg/kg, ip; format: functional; conditions: route intraperitoneal
Rattus norvegicus [19] = assay: Antiamnesic activity in scopolamine-induced memory deficit rat assessed as training trial latency time at 50 mg/kg, ip; format: functional; conditions: route intraperitoneal
Rattus norvegicus [20] = assay: Antiamnesic activity in scopolamine-induced memory deficit rat assessed as retention trial latency time at 0.5 mg/kg, ip after 24 hrs; format: functional; conditions: route intraperitoneal
Rattus norvegicus [21] = assay: Antiamnesic activity in scopolamine-induced memory deficit rat assessed as training trial latency time at 0.01 mg/kg, ip; format: functional; conditions: route intraperitoneal
Rattus norvegicus [22] = assay: Antiamnesic activity in scopolamine-induced memory deficit rat assessed as retention trial latency time at 50 mg/kg, ip after 24 hrs; format: functional; conditions: route intraperitoneal
Rattus norvegicus [23] = assay: Antiamnesic activity in scopolamine-induced memory deficit rat assessed as training trial latency time at 0.5 mg/kg, ip; format: functional; conditions: route intraperitoneal
Rattus norvegicus [24] = assay: Antiamnesic activity in scopolamine-induced memory deficit rat assessed as retention trial latency time at 0.01 mg/kg, ip after 24 hrs; format: functional; conditions: route intraperitoneal
Rattus norvegicus [25] = assay: Antiamnesic activity in scopolamine-induced memory deficit rat assessed as retention trial latency time at 0.1 mg/kg, ip after 24 hrs; format: functional; conditions: route intraperitoneal
Rattus norvegicus [26] = assay: Antiamnesic activity in scopolamine-induced memory deficit rat assessed as training trial latency time at 0.001 mg/kg, ip; format: functional; conditions: route intraperitoneal
Rattus norvegicus [27] = assay: Antiamnesic activity in scopolamine-induced memory deficit rat assessed as training trial latency time at 0.005 mg/kg, ip; format: functional; conditions: route intraperitoneal
Rattus norvegicus [28] = assay: Antiamnesic activity in scopolamine-induced memory deficit rat assessed as retention trial latency time at 0.001 mg/kg, ip after 24 hrs; format: functional; conditions: route intraperitoneal
Rattus norvegicus [29] = assay: Antiamnesic activity in scopolamine-induced memory deficit rat assessed as retention trial latency time at 0.005 mg/kg, ip after 24 hrs; format: functional; conditions: route intraperitoneal
Rattus norvegicus [30] = assay: Antiamnesic activity in scopolamine-induced memory deficit rat assessed as training trial latency time at 0.1 mg/kg, ip; format: functional; conditions: route intraperitoneal

C[N+](C)(C)CCOC(=O)Nc1ccncc1.[I-]
Time (Rattus norvegicus [1]): 21.3 s | Time (Rattus norvegicus [2]): 40.4 s | Time (Rattus norvegicus [3]): 21 s | Time (Rattus norvegicus [4]): 21.4 s | Time (Rattus norvegicus [5]): 37.3 s | Ki (Cholinesterase): 754 µM | Ki (Acetylcholinesterase): 159 µM | Time (Rattus norvegicus [6]): 30.6 s

C[N+](C)(C)CCOC(=O)Nc1ccncc1Br
Ki (Cholinesterase): 274 µM | Ki (Acetylcholinesterase): 116 µM

C[N+](C)(C)CCOC(=O)Nc1cc(Cl)nc(Cl)c1.[I-]
Time (Rattus norvegicus [7]): 56.9 s | Time (Rattus norvegicus [8]): 36.8 s | Time (Rattus norvegicus [9]): 92.9 s | Time (Rattus norvegicus [10]): 21.4 s | Time (Rattus norvegicus [11]): 14.4 s | Ki (Cholinesterase): 19.5 µM | Time (Rattus norvegicus [12]): 32.3 s | Ki (Acetylcholinesterase): 64.4 µM | Time (Rattus norvegicus [13]): 19 s | Time (Rattus norvegicus [14]): 19.7 s

CC(C)(C)C(=O)OCC[N+](C)(C)C.CC(C)(C)C(=O)[O-]
Time (Rattus norvegicus [15]): 45.8 s | Time (Rattus norvegicus [16]): 36.8 s | Time (Rattus norvegicus [17]): 38.8 s | Time (Rattus norvegicus [18]): 14.5 s

CN(C)CCOC(=O)Nc1ccnc(Cl)c1
Ki (Cholinesterase): 380 µM | Ki (Acetylcholinesterase): 208 µM

CN(C)CCOC(=O)Nc1ccncc1Br
Ki (Cholinesterase): 273 µM | Ki (Acetylcholinesterase): 316 µM

CN(C)CCOC(=O)Nc1ccncc1
Time (Rattus norvegicus [19]): 25.5 s | Time (Rattus norvegicus [20]): 49.7 s | Time (Rattus norvegicus [21]): 20.3 s | Ki (Cholinesterase): 20.4 µM | Time (Rattus norvegicus [22]): 39.6 s | Ki (Acetylcholinesterase): 314 µM | Time (Rattus norvegicus [23]): 43.6 s | Time (Rattus norvegicus [24]): 12.1 s

C[N+](C)(C)CCOC(=O)Nc1ccnc(Cl)c1
Ki (Cholinesterase): 161 µM | Ki (Acetylcholinesterase): 151 µM

CN(C)CCOC(=O)Nc1cc(Cl)nc(Cl)c1
Ki (Cholinesterase): 174 µM | Ki (Acetylcholinesterase): 140 µM

Nc1ccncc1 [DALFAMPRIDINE]
Time (Rattus norvegicus [25]): 33.6 s | Time (Rattus norvegicus [26]): 20.8 s | Time (Rattus norvegicus [27]): 22.1 s | Time (Rattus norvegicus [28]): 38.5 s | Time (Rattus norvegicus [29]): 92.3 s | Time (Rattus norvegicus [21]): 46.3 s | Time (Rattus norvegicus [30]): 20.3 s | Time (Rattus norvegicus [24]): 63.5 s
